SMILES strings stand for the structures.

Here are results for eleven compounds from ChEMBL document CHEMBL1201861, “Genomics of Drug Sensitity in Cancer screening data, Wellcome Trust Sanger Institute”.

Common to all, as to assay: cells
In one experiment the test system is HT55. The experiment is classed as functional, cell-based, Homo sapiens. To be noted: Homo sapiens, HT55.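 Also: cell viability readout measuring growth inhibition of human HT55 cells.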
In the next experiment the test system is YH-13. The experiment is classed as functional, cell-based. Particulars: Homo sapiens.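 Also: cell viability readout of growth suppression in the human YH-13 cell line.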
In the next experiment the test system is BT-549. The experiment is classed as functional, cell-based. Particulars: Homo sapiens.
A further experiment concerns EW-22. The experiment is classed as functional, cell-based. To be noted: Homo sapiens.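 Also: growth inhibition of the EW-22 cell line, measured with a cell viability readout.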
Another experiment deals with NCI-H630. The experiment is classed as functional, cell-based, Homo sapiens. To be noted: Homo sapiens, NCI-H630.
The next experiment relates to SW 1116. Format: functional, cell-based. Particulars: Homo sapiens.
For a further experiment, the system named is NCI-H460. Format: functional, cell-based, Homo sapiens. Particulars: Homo sapiens, NCI-H460.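 Also: cell viability assay scoring growth inhibition of human NCI-H460 cells.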
In a further experiment the test system is A549. The experiment is classed as functional, cell-based. To be noted: Homo sapiens.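 Also: growth inhibition of A549 cells, read out with a cell viability assay.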
In a further experiment the test system is RH-18. The experiment is classed as functional, cell-based. To be noted: Homo sapiens, Rh18.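 Also: growth inhibition of human RH-18 cells, read out with a cell viability assay.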
The next experiment deals with EPLC-272H. The experiment is classed as functional, cell-based. To be noted: Homo sapiens.
The subject of the next experiment is NCI-H2291. Format: functional, cell-based. Particulars: Homo sapiens.
For the next experiment, the system named is HuO9. Format: functional, cell-based, Homo sapiens. Particulars: Homo sapiens, HuO9.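 Also: growth inhibition of HuO9 cells, read out with a cell viability assay.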
The next experiment concerns G-361. The experiment is classed as functional, cell-based, Homo sapiens. To be noted: Homo sapiens, G-361.
The subject of a further experiment is 23132-87. Format: functional, cell-based, Homo sapiens. To be noted: Homo sapiens.
Another experiment has as its system Kasumi 1. The experiment is classed as functional, cell-based. To be noted: Homo sapiens.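 Also: growth inhibition of human Kasumi-1 cells, read out by a cell viability assay.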
For a further experiment, the system named is NCI-H1703. Format: functional, cell-based, Homo sapiens. To be noted: Homo sapiens, NCI-H1703.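 Also: growth inhibition of NCI-H1703 cells, read out via a cell viability assay.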
The test system of another experiment is MEL-JUSO. Format: functional, cell-based, Homo sapiens. Particulars: Homo sapiens, MEL-JUSO.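 Also: growth inhibition of human MEL-JUSO cells, read out with a cell viability assay.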

Description for 23132-87: SANGER: Inhibition of human 23132-87 cell growth in a cell viability assay.
Description for A549: SANGER: Inhibition of human A549 cell growth in a cell viability assay.
Description for BT-549: SANGER: Inhibition of human BT-549 cell growth in a cell viability assay.
Description for EPLC-272H: SANGER: Inhibition of human EPLC-272H cell growth in a cell viability assay.
Description for EW-22: SANGER: Inhibition of human EW-22 cell growth in a cell viability assay.
Description for HT55: SANGER: Inhibition of human HT55 cell growth in a cell viability assay.
Description for HuO9: SANGER: Inhibition of human HuO9 cell growth in a cell viability assay.
Description for Kasumi 1: SANGER: Inhibition of human KASUMI-1 cell growth in a cell viability assay.
Description for MEL-JUSO: SANGER: Inhibition of human MEL-JUSO cell growth in a cell viability assay.
Description for NCI-H1703: SANGER: Inhibition of human NCI-H1703 cell growth in a cell viability assay.
Description for NCI-H2291: SANGER: Inhibition of human NCI-H2291 cell growth in a cell viability assay.
Description for NCI-H460: SANGER: Inhibition of human NCI-H460 cell growth in a cell viability assay.
Description for NCI-H630: SANGER: Inhibition of human NCI-H630 cell growth in a cell viability assay.
Description for RH-18: SANGER: Inhibition of human RH-18 cell growth in a cell viability assay.
Description for SW 1116: SANGER: Inhibition of human SW1116 cell growth in a cell viability assay.
Description for YH-13: SANGER: Inhibition of human YH-13 cell growth in a cell viability assay.

Consider `O=C1N=C(NCc2cccs2)S/C1=C\c1ccc2ncccc2c1`, for which the IC50 – broadly, the midpoint of a concentration-inhibition curve – is over 5000 nM in the experiment on HT55; 4760 nM in the experiment with YH-13; over 5000 nM with BT-549; over 5000 nM in the experiment with EW-22; over 5000 nM in the experiment with NCI-H630; over 5000 nM in the experiment on SW 1116. Besides, the IC50 in the experiment with NCI-H460, with A549, with RH-18, in the experiment with EPLC-272H, with NCI-H2291 and in the experiment on HuO9 was over 5000 nM in each case.
Regarding `Nc1ccn([C@@H]2O[C@H](CO)[C@@H](O)[C@@H]2O)c(=O)n1` [CYTARABINE], the IC50 in the experiment on HT55 was over 2000 nM; with YH-13 it was 328 nM; in the experiment with BT-549, 531 nM; in the experiment with G-361 it was over 2000 nM; in the experiment with EW-22, 668 nM; in the experiment on 23132-87 it was 319 nM. The IC50 was over 2000 nM in the experiment with NCI-H630; over 2000 nM in the experiment on SW 1116; over 2000 nM in the experiment on Kasumi 1; 49.8 nM with NCI-H1703; 85.8 nM with MEL-JUSO; over 2000 nM in the experiment with NCI-H460. Also, the IC50 is 49.7 nM in the experiment on A549; over 2000 nM with RH-18; 1450 nM in the experiment on EPLC-272H; over 2000 nM in the experiment with NCI-H2291; over 2000 nM in the experiment with HuO9.
Take `O=c1cc(-c2cccc3c2Sc2ccccc2S3)oc(N2CCOCC2)c1` [KU-55933]: the IC50 in the experiment with HT55, with YH-13, with BT-549, with G-361, in the experiment with EW-22 and in the experiment on 23132-87 was over 10000 nM each time. Moreover, the concentration for half-maximal inhibition (IC50) in the experiment with NCI-H630, in the experiment with SW 1116, in the experiment with NCI-H1703, in the experiment on MEL-JUSO, in the experiment with NCI-H460 and in the experiment on A549 was over 10000 nM in each case. Further, the IC50 in the experiment on RH-18, in the experiment on EPLC-272H, in the experiment on NCI-H2291 and with HuO9 was over 10000 nM in each case.
Consider `CCOc1nc(NC(=O)Cc2cc(OC)ccc2OC)cc(N)c1C#N`, for which the IC50 with HT55, in the experiment with YH-13, with BT-549, with G-361, in the experiment on EW-22 and with 23132-87 was over 10000 nM each time. Further, the IC50 in the experiment with NCI-H630, with SW 1116, with NCI-H1703, in the experiment on MEL-JUSO, in the experiment with NCI-H460 and in the experiment with A549 was over 10000 nM throughout. The IC50 in the experiment on RH-18, with EPLC-272H, in the experiment with NCI-H2291 and in the experiment on HuO9 was over 10000 nM each time.
In the case of `C=CCNC1=C2C[C@@H](C)C[C@H](OC)[C@H](O)[C@@H](C)/C=C(\C)[C@H](OC(N)=O)[C@@H](OC)/C=C\C=C(/C)C(=O)NC(=CC1=O)C2=O` [TANESPIMYCIN], the IC50 was over 1000 nM with HT55; 57.2 nM in the experiment on YH-13; 118 nM with BT-549; 227 nM in the experiment on G-361; over 1000 nM in the experiment on EW-22; 69.5 nM in the experiment on 23132-87. The IC50 was over 1000 nM in the experiment with NCI-H630; over 1000 nM in the experiment on SW 1116; 414 nM in the experiment with NCI-H1703; 44.7 nM in the experiment with MEL-JUSO; 19.7 nM in the experiment with NCI-H460; under 3.91 nM in the experiment with A549. Further, the IC50 in the experiment on RH-18 was over 1000 nM; in the experiment with EPLC-272H it was 62 nM; with NCI-H2291, 479 nM; in the experiment on HuO9, 75.9 nM.
`COc1ccc(-c2ccc3c(N4CCOC[C@@H]4C)nc(N4CCOC[C@@H]4C)nc3n2)cc1CO` [AZD-8055]: the IC50 in the experiment on HT55 was over 2000 nM; in the experiment on YH-13, 549 nM; in the experiment with BT-549, over 2000 nM; in the experiment with EW-22, 684 nM; with NCI-H630, over 2000 nM; in the experiment with SW 1116, over 2000 nM. Moreover, the IC50 is 506 nM in the experiment on NCI-H460; 195 nM with A549; over 2000 nM in the experiment on RH-18; 431 nM in the experiment with EPLC-272H; over 2000 nM with NCI-H2291; 407 nM with HuO9.
As to `CC(=O)O[C@@H]1[C@@H](OC(C)=O)[C@@H](O)[C@H](Oc2c(-c3ccc(O)cc3)oc3cc(O)cc(O)c3c2=O)O[C@H]1C`, the IC50 in the experiment on YH-13, in the experiment on BT-549, in the experiment with G-361, with EW-22, in the experiment on 23132-87 and with NCI-H630 was over 10000 nM each time. Also, the IC50 in the experiment on SW 1116, in the experiment on NCI-H1703, in the experiment with MEL-JUSO, with NCI-H460, in the experiment with A549 and with RH-18 was over 10000 nM each time. The IC50 in the experiment on EPLC-272H, in the experiment with NCI-H2291 and in the experiment on HuO9 was over 10000 nM each time.
With `O=C(NOCC1CC1)c1ccc(F)c(F)c1Nc1ccc(I)cc1Cl` [CI-1040], the IC50 with YH-13 is over 10000 nM; in the experiment on BT-549 it was over 10000 nM; with G-361, 368 nM; in the experiment on EW-22 it was over 10000 nM; in the experiment with 23132-87, 5170 nM; in the experiment on NCI-H630, over 10000 nM. The IC50 in the experiment on SW 1116 is 1560 nM; in the experiment on Kasumi 1, 399 nM; with NCI-H1703 it was over 10000 nM; in the experiment on MEL-JUSO, 5740 nM; in the experiment with NCI-H460 it was over 10000 nM; in the experiment on A549 it was 1200 nM. Besides, the IC50 in the experiment with RH-18 is over 10000 nM; in the experiment with EPLC-272H it was 5000 nM; in the experiment with NCI-H2291, 1330 nM; in the experiment with HuO9 it was over 10000 nM.
`COc1cc(F)c(F)c(Nc2ccc(I)cc2F)c1NS(=O)(=O)C1(CC(O)CO)CC1` (centres undefined): the IC50 in the experiment with HT55 is 2430 nM; in the experiment with YH-13 it was 2680 nM; with BT-549 it was over 5000 nM; in the experiment with EW-22 it was over 5000 nM; in the experiment with NCI-H630 it was over 5000 nM; in the experiment with SW 1116, over 5000 nM. The IC50 with NCI-H460 was 2520 nM; in the experiment with A549, 116 nM; in the experiment with RH-18 it was over 5000 nM; in the experiment with EPLC-272H, 185 nM; in the experiment on NCI-H2291, 397 nM; with HuO9, over 5000 nM.
In the case of `Cn1cc(C2=C(c3ccc(Cl)cc3Cl)C(=O)NC2=O)c2ccccc21` [SB-216763], the IC50 is over 10000 nM in the experiment with YH-13; 5290 nM with BT-549; over 10000 nM in the experiment on G-361; over 10000 nM in the experiment on EW-22; over 10000 nM with 23132-87; over 10000 nM in the experiment on NCI-H630. Moreover, the IC50 in the experiment with SW 1116, with NCI-H1703, in the experiment with MEL-JUSO, in the experiment with NCI-H460, in the experiment with A549 and with RH-18 was over 10000 nM throughout. Further, the IC50 in the experiment on EPLC-272H, in the experiment with NCI-H2291 and with HuO9 was over 10000 nM each time.
Take `CN(C)C/C=C/C(=O)Nc1cc2c(Nc3ccc(F)c(Cl)c3)ncnc2cc1O[C@H]1CCOC1` [AFATINIB]: the IC50 with HT55 was over 500 nM; in the experiment on YH-13, over 500 nM; in the experiment with BT-549, over 500 nM; with G-361, over 500 nM; with EW-22, over 500 nM; with 23132-87 it was 319 nM. Also, the half-inhibitory concentration (IC50) was over 500 nM in the experiment with NCI-H630; over 500 nM in the experiment on SW 1116; 9.11 nM in the experiment with Kasumi 1; over 500 nM in the experiment with NCI-H1703; over 500 nM in the experiment with MEL-JUSO; over 500 nM with NCI-H460. Besides, the IC50 in the experiment with A549, in the experiment on RH-18, with EPLC-272H, with NCI-H2291 and with HuO9 was over 500 nM each time.
